Like-named read-outs stand apart in the source and are kept apart here.
How the values were obtained:
SGLT1 = biological target: T1, SGLT1 (Homo sapiens, UniProt P13866); assay: SGLT1 inhibition; format: biochemical
T1 sequence (P13866 1-664): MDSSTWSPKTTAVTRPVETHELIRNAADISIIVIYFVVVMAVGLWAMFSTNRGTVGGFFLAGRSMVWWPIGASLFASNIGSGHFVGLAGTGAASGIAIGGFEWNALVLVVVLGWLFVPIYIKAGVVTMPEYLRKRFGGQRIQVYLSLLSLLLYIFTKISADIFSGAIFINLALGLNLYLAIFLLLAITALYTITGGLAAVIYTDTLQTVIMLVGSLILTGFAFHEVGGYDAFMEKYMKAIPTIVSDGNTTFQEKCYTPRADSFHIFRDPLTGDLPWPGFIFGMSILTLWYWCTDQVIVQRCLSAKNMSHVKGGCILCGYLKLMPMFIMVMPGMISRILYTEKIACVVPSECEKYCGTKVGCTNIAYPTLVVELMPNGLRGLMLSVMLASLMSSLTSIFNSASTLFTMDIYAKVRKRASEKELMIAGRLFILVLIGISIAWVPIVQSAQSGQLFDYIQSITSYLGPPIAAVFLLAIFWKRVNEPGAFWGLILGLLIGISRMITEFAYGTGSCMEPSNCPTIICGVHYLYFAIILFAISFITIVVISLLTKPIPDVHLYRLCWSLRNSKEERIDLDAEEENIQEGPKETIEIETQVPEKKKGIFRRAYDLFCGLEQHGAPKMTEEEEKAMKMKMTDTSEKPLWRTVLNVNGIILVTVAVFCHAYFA

[1] = In vitro pharmacokinetic drug interaction studies; format: in vitro ADME
[2] = Oral toxicity studies in rats
[3] = Single and multiple dose studies in healthy volunteers and T2DM patients; format: in vivo, human
hERG = hERG (Homo sapiens, UniProt Q12809); assay: hERG inhibitory activity; format: biochemical; conditions: at the maximal soluble concentration (16 μM)
[4] = Oral toxicity studies in dogs; format: in vivo
[5] = Dog pharmacokinetics, tablet vs solution, crossover; format: in vivo; conditions: single dose of 50 mg/dog, dogs
[6] = 12 week study in obese patients; format: in vivo, human
[7] = Excretion of [14C] LIK066-related radioactivity in rats; format: in vivo
Permeability = format: in vitro ADME
P-glycoprotein (P-gp) = P-glycoprotein (P-gp) (Homo sapiens, UniProt P08183); assay: P-glycoprotein substrate assessment; format: in vitro ADME
[8] = Dose/exposure-response analysis from completed clinical studies; format: in vivo, human
Experimental: The primary efficacy endpoint for dose/exposure-response analysis for LIK066, from previously completed clinical studies, was body weight loss, and other pharmacodynamic endpoints such as urinary and plasma glucose. The estimated ED50 and ED90 of LIK066 based on once a day dosing were approximately 5 mg and 50 mg, respectively, based on a body weight loss model. The estimated ED50 and ED90 based on other relevant pharmacodynamics endpoints such as urinary and plasma glucose were approximately 3-10 mg and 30-100 mg, respectively. […] Therefore this dose is tested first, with introduction of the 30 mg dose later to assure futility evaluation prior to enrollment of the entire cohort for the study. […] The diarrhea associated with LIK066 could be mitigated by dietary modification such as reduction in carbohydrate intake. Body weight loss is an important factor in therapeutic development for NASH as weight loss through either bariatric surgery or life style modification deters progression of the disease.

SGLT2 = biological target: T2, SGLT2 (Homo sapiens, UniProt P31639); assay: SGLT2 inhibition; format: biochemical
T2 sequence (P31639 1-672): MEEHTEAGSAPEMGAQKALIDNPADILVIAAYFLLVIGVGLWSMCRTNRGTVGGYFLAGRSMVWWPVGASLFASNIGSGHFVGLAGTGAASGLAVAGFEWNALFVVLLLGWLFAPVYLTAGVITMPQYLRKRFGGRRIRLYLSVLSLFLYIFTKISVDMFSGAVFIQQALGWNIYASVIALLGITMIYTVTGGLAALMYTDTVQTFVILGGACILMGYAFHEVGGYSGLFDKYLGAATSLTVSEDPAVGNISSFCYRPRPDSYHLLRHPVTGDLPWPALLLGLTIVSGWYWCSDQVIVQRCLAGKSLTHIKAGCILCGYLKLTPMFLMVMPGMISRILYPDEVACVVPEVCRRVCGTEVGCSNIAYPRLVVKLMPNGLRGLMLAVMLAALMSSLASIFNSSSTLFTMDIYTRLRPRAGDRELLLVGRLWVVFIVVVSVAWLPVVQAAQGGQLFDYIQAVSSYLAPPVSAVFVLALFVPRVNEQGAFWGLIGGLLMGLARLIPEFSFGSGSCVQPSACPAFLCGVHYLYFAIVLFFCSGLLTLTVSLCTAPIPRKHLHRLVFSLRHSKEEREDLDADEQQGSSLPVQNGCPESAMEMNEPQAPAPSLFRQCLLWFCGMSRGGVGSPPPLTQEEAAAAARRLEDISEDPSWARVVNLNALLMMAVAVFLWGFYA

[9] = Clinical pharmacokinetics; conditions: human, in vivo; read-out: pharmacokinetic elimination half-life
Solubility = format: physicochemical
[10] = system: other glucose transporters (GLUTs); assay: Selectivity against other glucose transporters; format: biochemical
human hepatocytes = assay: Clearance pathways in human hepatocytes; format: in vitro ADME
[11] = Tissue distribution study in rats; format: in vivo
[12] = rat, in vivo
[13] = once a day dosing, body weight loss model
[14] = urinary and plasma glucose endpoints

P-glycoprotein (P-gp), sequence (P08183 whole entry): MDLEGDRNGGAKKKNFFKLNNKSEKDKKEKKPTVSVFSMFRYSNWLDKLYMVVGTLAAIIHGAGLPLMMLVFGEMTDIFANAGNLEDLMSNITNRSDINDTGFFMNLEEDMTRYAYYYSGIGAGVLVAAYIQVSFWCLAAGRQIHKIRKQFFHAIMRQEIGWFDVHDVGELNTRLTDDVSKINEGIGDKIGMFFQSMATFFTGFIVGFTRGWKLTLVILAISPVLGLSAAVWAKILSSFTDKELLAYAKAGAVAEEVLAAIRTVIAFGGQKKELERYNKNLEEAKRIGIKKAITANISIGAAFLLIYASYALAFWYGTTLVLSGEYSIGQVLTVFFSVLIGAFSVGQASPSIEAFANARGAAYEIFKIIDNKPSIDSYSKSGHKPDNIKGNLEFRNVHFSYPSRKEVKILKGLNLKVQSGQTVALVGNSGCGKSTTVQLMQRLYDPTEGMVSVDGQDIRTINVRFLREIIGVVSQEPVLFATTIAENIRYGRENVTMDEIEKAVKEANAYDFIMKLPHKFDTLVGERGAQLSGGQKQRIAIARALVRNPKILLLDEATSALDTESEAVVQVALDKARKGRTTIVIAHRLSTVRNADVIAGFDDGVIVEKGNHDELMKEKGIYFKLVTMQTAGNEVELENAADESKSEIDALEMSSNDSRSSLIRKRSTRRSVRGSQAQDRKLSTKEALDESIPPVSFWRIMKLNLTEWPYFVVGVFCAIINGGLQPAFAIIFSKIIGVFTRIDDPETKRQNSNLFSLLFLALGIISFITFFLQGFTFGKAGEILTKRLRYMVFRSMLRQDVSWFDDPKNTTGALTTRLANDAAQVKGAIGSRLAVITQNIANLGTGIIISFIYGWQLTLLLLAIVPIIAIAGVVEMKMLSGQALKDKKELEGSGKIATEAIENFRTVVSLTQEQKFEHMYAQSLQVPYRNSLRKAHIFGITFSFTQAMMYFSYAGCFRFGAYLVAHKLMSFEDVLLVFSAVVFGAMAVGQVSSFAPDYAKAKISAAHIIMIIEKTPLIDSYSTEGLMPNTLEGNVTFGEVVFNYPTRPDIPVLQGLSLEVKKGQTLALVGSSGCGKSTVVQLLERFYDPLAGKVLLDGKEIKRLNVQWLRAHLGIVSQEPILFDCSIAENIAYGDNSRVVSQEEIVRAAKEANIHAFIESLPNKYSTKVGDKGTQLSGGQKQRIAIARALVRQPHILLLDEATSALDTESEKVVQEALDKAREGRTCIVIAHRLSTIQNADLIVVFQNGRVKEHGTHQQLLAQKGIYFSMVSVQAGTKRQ
hERG, sequence (Q12809 whole entry): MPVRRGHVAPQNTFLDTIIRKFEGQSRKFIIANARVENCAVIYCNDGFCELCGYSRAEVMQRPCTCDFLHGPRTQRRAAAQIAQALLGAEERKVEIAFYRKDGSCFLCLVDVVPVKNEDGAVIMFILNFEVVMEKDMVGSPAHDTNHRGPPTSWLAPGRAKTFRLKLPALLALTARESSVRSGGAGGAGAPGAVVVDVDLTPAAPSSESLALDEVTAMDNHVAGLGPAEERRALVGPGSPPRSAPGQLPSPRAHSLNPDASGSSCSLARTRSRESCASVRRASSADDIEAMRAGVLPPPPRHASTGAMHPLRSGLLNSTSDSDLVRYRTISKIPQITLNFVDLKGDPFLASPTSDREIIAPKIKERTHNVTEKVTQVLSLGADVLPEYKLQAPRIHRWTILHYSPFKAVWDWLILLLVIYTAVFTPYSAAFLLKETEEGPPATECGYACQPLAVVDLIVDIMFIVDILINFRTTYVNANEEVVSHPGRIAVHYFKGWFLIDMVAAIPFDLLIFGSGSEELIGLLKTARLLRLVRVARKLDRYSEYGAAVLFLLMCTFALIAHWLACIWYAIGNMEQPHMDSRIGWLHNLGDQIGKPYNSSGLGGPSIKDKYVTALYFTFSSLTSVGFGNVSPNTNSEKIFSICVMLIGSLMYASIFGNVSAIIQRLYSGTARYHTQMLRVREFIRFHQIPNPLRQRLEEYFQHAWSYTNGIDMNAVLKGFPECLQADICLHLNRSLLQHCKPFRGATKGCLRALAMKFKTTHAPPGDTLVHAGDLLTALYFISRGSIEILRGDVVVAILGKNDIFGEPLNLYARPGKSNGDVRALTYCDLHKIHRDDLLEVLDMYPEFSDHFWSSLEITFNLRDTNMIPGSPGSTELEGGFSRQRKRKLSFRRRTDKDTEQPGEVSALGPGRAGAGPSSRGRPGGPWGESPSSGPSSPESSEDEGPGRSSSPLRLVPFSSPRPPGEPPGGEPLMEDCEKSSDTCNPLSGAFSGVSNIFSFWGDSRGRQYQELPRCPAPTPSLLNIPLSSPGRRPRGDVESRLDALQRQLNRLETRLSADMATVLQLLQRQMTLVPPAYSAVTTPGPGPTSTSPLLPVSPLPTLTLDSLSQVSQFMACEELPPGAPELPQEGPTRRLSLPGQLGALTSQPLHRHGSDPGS

## CCc1ccc([C@@H]2O[C@H](CO)[C@@H](O)[C@H](O)[C@H]2O)cc1Cc1ccc2c(c1)OCCO2 [LIK066, (2S,3R,4R,5S,6R)-2-(3-((2,3-dihydrobenzo[b][1,4]dioxin-6-yl)methyl)-4-ethylphenyl)-6-(hydroxymethyl)tetrahydro-2H-pyran-3,4,5-triol]
SGLT1
  inhibition of SGLT1: potent inhibitor
[1]
  potential to act as a perpetrator of pharmacokinetic drug interactions: low potential
[2]; oral, rats, up to 26-weeks
  principal target organs of toxicity: gastrointestinal tract, kidney, urinary tract, bone, liver and adrenal glands
[2]; rat, in vivo, oral
  NOAEL: 5 mg/kg/day
[2]; rats, at almost all doses
  body weight gain: reduced body weight gain
[3]; healthy volunteers and patients with T2DM
  safety and tolerability: safe and tolerated
[3]; human, in vivo
  pharmacokinetic profile: favorable
[3]; over 2 weeks, healthy subjects and patients with T2DM
  placebo-adjusted weight loss: up to 3%
[3]; patients with T2DM
  glucose AUC after an oral glucose tolerance test (OGTT): significantly lowered
[3]; single and multiple doses, healthy volunteers and patients with T2DM
  glucosuria: induced glucosuria
hERG
  inhibitory hERG activity: no significant inhibitory hERG activity
[4]; dog, in vivo, oral, read-out: no observed adverse effect level (NOAEL)
  NOAEL: 0.5 mg/kg/day
[4]; dogs, at almost all doses
  body weight gain: reduced body weight gain
[4]; dogs, prolonged periods (≥6 weeks), body weight loss, fecal changes and dehydration
  doses not tolerated: ≥ 10 mg/kg
[4]; oral, dogs, up to 13-weeks
  principal target organs of toxicity: gastrointestinal tract, kidney, urinary tract, bone, liver and adrenal glands
[5]
  pharmacokinetics, tablet vs solution formulations: comparable
[6]; 150 mg daily dose (qd, b.i.d or tid), obese patients, 12 week treatment
  weight loss: ~6%
[6]; 150 mg dose, previous phase 2 study
  weight loss: significant weight loss
[6]; 150 mg qd, twelve weeks
  dose-limiting toxicity / primary AE: diarrhea
[6]; 150 mg qd, twelve weeks, normoglycemic and dysglycemic subjects / obese patients
  safety and tolerability: generally safe and well tolerated
[7]
  excretion of [14C] LIK066-related radioactivity: excreted in both urine and feces, mainly as metabolites
Permeability
  permeability: good permeability
P-glycoprotein (P-gp)
  P-glycoprotein (P-gp) substrate: is a substrate
[8]; [13]
  estimated ED50: approximately 5 mg
  estimated ED90: ~50 mg
[8]; [14]
  estimated ED50: 3 to 10 mg
  estimated ED90: 30 to 100 mg
SGLT2
  inhibition of SGLT2: potent inhibitor
[9]
  half-life: 10 to 16 h
Solubility
  solubility: good solubility
[10]
  selectivity against other glucose transporters (GLUTs): high selectivity
Human hepatocytes
  predominant clearance pathway: Direct glucuronidation (via the UDP-glucuronosyl transferase (UGT1A9))
  second clearance pathway (followed by): oxidative metabolism (CYP3A4)
[11]
  distribution to the central nervous system and reproductive organs: relatively low distribution
[12]; 4 weeks
  tolerated dose: up to 100 mg/kg
[12]; 26 weeks
  tolerated dose: up to 30 mg/kg
